{"source": "patent US10858367B2", "about": "“Compounds” (GLAXOSMITHKLINE INTELLECTUAL PROPERTY DEVELOPMENT LIMITED, priority 2017, dated 2020)", "note": "Values joined by “and” are separate entries in the source; they are usually repeats but may differ in a detail not shown here. Equal values may be shown once. Where a name gives a salt, the structure may show the parent alone."}
{"molecular_target": "T1, LRRK2 Ser935 phosphorylation in SH-SY5Y cells over-expressing recombinant full length LRRK2 (Homo sapiens, UniProt Q5S007)", "T1 construct": "A BacMam virus expressing full length recombinant LRRK2 was purchased from Invitrogen; host or cells: SH-SY5Y human neuroblastoma cells transduced with BacMam LRRK2 virus", "T1 sequence (Q5S007 whole entry)": "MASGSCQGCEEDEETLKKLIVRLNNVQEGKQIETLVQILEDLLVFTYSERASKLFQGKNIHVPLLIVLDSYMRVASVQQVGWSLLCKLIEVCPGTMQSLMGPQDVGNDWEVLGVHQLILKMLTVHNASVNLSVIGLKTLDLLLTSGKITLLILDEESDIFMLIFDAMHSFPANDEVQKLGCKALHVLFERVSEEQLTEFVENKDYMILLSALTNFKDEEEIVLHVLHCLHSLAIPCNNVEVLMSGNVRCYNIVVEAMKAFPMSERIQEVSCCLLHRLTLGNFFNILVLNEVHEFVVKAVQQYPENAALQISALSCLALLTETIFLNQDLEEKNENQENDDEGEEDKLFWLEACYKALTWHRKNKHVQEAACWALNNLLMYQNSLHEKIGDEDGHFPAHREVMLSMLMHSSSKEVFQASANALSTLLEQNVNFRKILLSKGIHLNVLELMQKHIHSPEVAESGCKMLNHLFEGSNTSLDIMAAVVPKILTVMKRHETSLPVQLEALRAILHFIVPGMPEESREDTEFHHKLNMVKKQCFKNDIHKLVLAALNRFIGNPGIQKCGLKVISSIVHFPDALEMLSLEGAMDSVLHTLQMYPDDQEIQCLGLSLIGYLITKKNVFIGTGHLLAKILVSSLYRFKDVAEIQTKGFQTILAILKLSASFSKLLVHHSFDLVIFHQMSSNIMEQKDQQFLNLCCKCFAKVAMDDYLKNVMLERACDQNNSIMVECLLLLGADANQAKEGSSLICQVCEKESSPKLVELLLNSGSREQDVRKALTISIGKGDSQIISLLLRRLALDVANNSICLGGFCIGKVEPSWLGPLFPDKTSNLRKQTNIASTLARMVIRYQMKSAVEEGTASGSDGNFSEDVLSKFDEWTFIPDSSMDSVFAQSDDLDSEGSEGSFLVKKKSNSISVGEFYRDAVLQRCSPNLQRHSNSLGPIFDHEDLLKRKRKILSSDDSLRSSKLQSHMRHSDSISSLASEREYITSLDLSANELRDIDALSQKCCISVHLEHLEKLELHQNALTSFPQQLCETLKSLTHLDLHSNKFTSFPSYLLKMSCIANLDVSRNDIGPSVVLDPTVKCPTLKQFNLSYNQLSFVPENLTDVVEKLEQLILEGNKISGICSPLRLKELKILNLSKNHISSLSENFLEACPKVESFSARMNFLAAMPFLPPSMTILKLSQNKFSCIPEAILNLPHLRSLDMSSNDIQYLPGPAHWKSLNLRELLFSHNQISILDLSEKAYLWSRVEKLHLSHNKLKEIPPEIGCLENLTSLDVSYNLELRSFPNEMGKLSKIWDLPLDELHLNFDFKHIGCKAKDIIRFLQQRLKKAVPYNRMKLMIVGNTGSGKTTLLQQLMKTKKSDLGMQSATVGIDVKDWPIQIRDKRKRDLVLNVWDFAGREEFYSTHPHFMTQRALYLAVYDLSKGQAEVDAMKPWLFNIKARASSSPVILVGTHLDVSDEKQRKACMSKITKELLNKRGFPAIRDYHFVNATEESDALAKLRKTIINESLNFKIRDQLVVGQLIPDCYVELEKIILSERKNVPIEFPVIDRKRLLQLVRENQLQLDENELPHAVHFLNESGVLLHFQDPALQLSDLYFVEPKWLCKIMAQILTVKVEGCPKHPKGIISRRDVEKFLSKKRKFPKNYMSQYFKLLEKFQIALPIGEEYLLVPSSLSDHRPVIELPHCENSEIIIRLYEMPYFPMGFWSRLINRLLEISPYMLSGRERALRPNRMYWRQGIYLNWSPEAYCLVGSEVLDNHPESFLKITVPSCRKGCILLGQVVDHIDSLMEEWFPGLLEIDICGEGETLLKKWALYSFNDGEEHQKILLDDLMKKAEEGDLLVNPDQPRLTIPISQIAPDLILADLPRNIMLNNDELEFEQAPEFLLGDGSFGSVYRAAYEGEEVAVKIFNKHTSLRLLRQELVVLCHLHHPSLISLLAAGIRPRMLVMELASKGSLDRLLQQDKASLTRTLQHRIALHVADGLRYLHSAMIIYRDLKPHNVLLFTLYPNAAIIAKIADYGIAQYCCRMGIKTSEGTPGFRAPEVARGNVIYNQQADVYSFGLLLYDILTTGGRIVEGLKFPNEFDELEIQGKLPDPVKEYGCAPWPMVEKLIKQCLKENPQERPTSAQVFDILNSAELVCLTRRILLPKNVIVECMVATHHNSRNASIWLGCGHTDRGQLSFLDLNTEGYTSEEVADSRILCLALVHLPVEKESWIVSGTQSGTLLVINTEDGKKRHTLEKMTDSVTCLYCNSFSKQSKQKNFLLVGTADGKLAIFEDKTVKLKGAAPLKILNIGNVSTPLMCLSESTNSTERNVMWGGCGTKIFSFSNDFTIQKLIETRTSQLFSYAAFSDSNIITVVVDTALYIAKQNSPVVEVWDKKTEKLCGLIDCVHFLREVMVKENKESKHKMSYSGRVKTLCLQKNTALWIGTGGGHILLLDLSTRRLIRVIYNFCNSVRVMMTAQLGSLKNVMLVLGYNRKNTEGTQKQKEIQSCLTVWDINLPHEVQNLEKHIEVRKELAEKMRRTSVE", "test": "Recombinant cellular LRRK2 AlphaScreen assay", "type": "cell-based", "details": "human neuroblastoma SH-SY5Y cells, BacMam full length LRRK2, 60 minutes with compound, read-out: pIC50 in the recombinant cellular LRRK2 AlphaScreen assay (converted)", "from_the_text": "b. Recombinant Cellular LRRK2 AlphaScreen Assay\nTo determine the activity of compounds against LRRK2 kinase activity in cells, the observed LRRK2 kinase-dependent modulation of LRRK2 Ser 935 phosphorylation (Dzamko et al., 2010, Biochem. J. 430: 405-413) was utilized to develop a quantitative 384 well plate-based immunoassay of LRRK2 Ser935 phosphorylation in the human neuroblastoma cell line SH-SY5Y, engineered to over-express recombinant full length LRRK2 protein.\nA BacMam virus expressing full length recombinant LRRK2 was purchased from Invitrogen and amplified by inoculation of SF-9 cells at MOI 0.3 for 4-5 days in Sf-900 III SFM medium supplemented with 3% fetal bovine serum. Infected cell cultures were then centrifuged at 2000 g for 20 minutes, viral supernatant titer determined by anti-gp64 plaque assay and stored at 4° C.\nAffinity-purified anti-phospho LRRK2 Ser935 sheep polyclonal antibody (Dzamko et al., 2010, Biochem. J. 430: 405-413) was biotinylated by standard methods (PerkinElmer). Anti-LRRK2 rabbit polyclonal antibody was purchased from Novus Biologicals. AlphaScreen Protein A IgG Kit (including acceptor and donor beads) was purchased from Perkin Elmer.\nSH-SY5Y cells were grown in DMEM/F12 medium with 10% dialysed fetal bovine serum and harvested by treatment with 0.5% trypsin-EDTA for 5 minutes at 37° C. followed by centrifugation at 1000 rpm for 4 minutes. The cell pellet was resuspended in Opti-MEM reduced serum media (Invitrogen) at 200,000 cells/ml and mixed with the BacMam LRRK2 virus at MOI=50. 50 μl cell solutions were then dispensed to each well of a 384-well plate and incubated at 37° C., 5% CO2 for 24 hours.\nSerial dilutions of test compounds were prepared in Opti-MEM reduced serum media (Invitrogen) and 5.6 ul transferred from compound plate to cell assay plate to achieve a top final assay concentration of 10 uM. DMSO was used in certain wells as controls. Cells were incubated at 37° C., 5% CO2 for 60 minutes. The medium was then removed and cells lysed by addition of 20 ul cell lysis buffer (Cell Signaling Technology) and incubation at 4° C. for 20 minutes. 10 ul of antibody/acceptor bead mix [(1/1000 biotinylated-pS935 LRRK2 antibody, 1/1000 total-LRRK2 antibody, 1/100 Acceptor beads in AlphaScreen detection buffer (25 mM Hepes (pH 7.4), 0.5% Triton X-100, 1 mg/ml Dextran 500 and 0.1% BSA)] was then added to each well and plates incubated for 2 hours at ambient temperature in the dark. 10 μl of donor beads solution (1/33.3 donor beads in AlphaScreen detection buffer) was then added to each well. Following incubation for a further 2 hours at ambient temperature in the dark, plates were read on an EnVision™ plate reader at emission 520-620 nm with excitation 680 nm. Dose response curve data was based on sigmoidal dose-response model."}
{"smiles": "Cc1nc(N2C[C@H]3C[C@@H]2CO3)cc(-n2ncc3cc(C)c(C4CCN(C5COC5)CC4(C)O)cc32)n1", "note": "(single isomer, unassigned) [Example E147]", "IC50": "≤ 1 µM"}
{"smiles": "COc1nc(N2C[C@@H]3C[C@H]2CO3)cc(-n2ncc3cc(C)c(C4CCN(CCO)CC4F)cc32)n1", "note": "(single isomer, unassigned) [Example E19]", "IC50": "≤ 1 µM"}
{"smiles": "COc1nc(N2C[C@@H]3C[C@H]2CO3)cc(-n2ncc3cc(C)c(C4CCN(C5CCOC5)CC4)cc32)n1", "note": "(single isomer, unassigned) [Example E15]", "IC50": "≤ 1 µM"}
{"smiles": "COc1nc(N2CC3CC2CC3C(=O)O)cc(-n2ncc3cc(Cl)c(O[C@H]4CCOC4)cc32)n1", "note": "(single isomer, unassigned) [Example E84]", "IC50": "≤ 1 µM"}
{"smiles": "COc1nc(N2CC3CC2CC3C(=O)O)cc(-n2ncc3cc(Cl)c(O[C@@H]4CCOC4)cc32)n1", "note": "(single isomer, unassigned) [Example E85]", "IC50": "≤ 1 µM"}
{"smiles": "Cc1nc(N2C[C@@H]3C[C@H]2CO3)cc(-n2ncc3cc(C)c(C4CCN(CCO)CC4F)cc32)n1", "note": "(single isomer, unassigned) [Example E21]", "IC50": "≤ 1 µM"}
{"smiles": "Cc1nc(N2CC3CC(C2)C3C(=O)O)cc(-n2ncc3cc(C)c(C4CCOCC4)cc32)n1", "note": "(stereo not shown) [Example E80, 3-{2-Methyl-6-[5-methyl-6-(tetrahydro-pyran-4-yl)-indazol-1-yl]-pyrimidin-4-yl}-3-aza-bicyclo[3.1.1]heptane-6-carboxylic Acid]", "IC50": "≤ 1 µM"}
{"smiles": "COc1nc(N2C[C@H]3C[C@@H]2CO3)cc(-n2ncc3cc(C)c(C4CCN(CCF)CC4)cc32)n1", "note": "[Example E37, (1R,4R)-5-(6-(6-(1-(2-fluoroethyl)piperidin-4-yl)-5-methyl-1H-indazol-1-yl)-2-methoxypyrimidin-4-yl)-2-oxa-5-azabicyclo[2.2.1]heptane]", "IC50": "≤ 1 µM"}
{"smiles": "COc1nc(N2CC3CC(C2)O3)cc(-n2ncc3cc(C)c(C4CCNCC4)cc32)n1", "note": "[Example E60, 3-(2-methoxy-6-(5-methyl-6-(piperidin-4-yl)-1H-indazol-1-yl)pyrimidin-4-yl)-6-oxa-3-azabicyclo[3.1.1]heptane 2,2,2-trifluoroacetate]", "IC50": "≤ 1 µM"}
{"smiles": "Cc1nc(N2C3CCC2COC3)cc(-n2ncc3cc(C)c(C4CCN(C5COC5)CC4)cc32)n1", "note": "[Example E45, 8-(2-methyl-6-(5-methyl-6-(1-(oxetan-3-yl)piperidin-4-yl)-1H-indazol-1-yl)pyrimidin-4-yl)-3-oxa-8-azabicyclo[3.2.1]octane]", "IC50": "≤ 1 µM"}
{"smiles": "COc1nc(N2C[C@H]3C[C@@H]2CO3)cc(-n2ncc3cc(C)c(C4CCN(C5COC5)CC4)cc32)n1", "note": "[Example E1, (1R,4R)-5-(2-methoxy-6-(5-methyl-6-(1-(oxetan-3-yl)piperidin-4-yl)-1H-indazol-1-yl)pyrimidin-4-yl)-2-oxa-5-azabicyclo[2.2.1]heptane]", "IC50": "≤ 1 µM and 0.02 µM"}
{"smiles": "[2H]C([2H])([2H])Oc1nc(N2C[C@H]3C[C@@H]2CO3)cc(-n2ncc3cc(C)c(C4CCN(C5COC5)CC4)cc32)n1", "note": "[Example E72, (1R,4R)-5-(6-(5-methyl-6-(1-(oxetan-3-yl)piperidin-4-yl)-1H-indazol-1-yl)-2-(trideuteriummethoxy)pyrimidin-4-yl)-2-oxa-5-azabicyclo[2.2.1]heptane]", "IC50": "≤ 0.01 µM"}
{"smiles": "COc1nc(N2C[C@@H]3C[C@H]2CO3)cc(-n2ncc3cc(Cl)c(C4CCN(C5CCOC5)CC4)cc32)n1", "note": "(single isomer, unassigned) [Example E69]", "IC50": "≤ 1 µM"}
{"smiles": "Cc1nc(N2C[C@@H]3C[C@H]2CO3)cc(-n2ncc3cc(C)c(C4CCN(CCC(=O)O)CC4F)cc32)n1", "note": "(single isomer, unassigned) [Example E157]", "IC50": "≤ 1 µM"}
{"smiles": "COc1nc(N2CC3CC2CO3)cc(-n2ncc3cc(C)c([C@H]4CC[C@](C)(O)CC4)cc32)n1", "note": "(single isomer, unassigned) [Example E12]", "IC50": "≤ 1 µM"}
{"smiles": "Cc1nc(N2C[C@@]3(CO)C[C@@H]2CO3)cc(-n2ncc3cc(C)c(C4CCOCC4O)cc32)n1", "note": "(single isomer, unassigned) [Example E168, 4-(1-(6-(1-(hydroxymethyl)-2-oxa-5-azabicyclo[2.2.1]heptan-5-yl)-2-methylpyrimidin-4-yl)-5-methyl-1H-indazol-6-yl)tetrahydro-2H-pyran-3-ol]", "IC50": "≤ 1 µM"}
{"smiles": "Cc1nc(N2CC3CC2CC3C(=O)O)cc(-n2ncc3cc(C)c(C4CCC(C)(O)CC4)cc32)n1", "note": "(single isomer, unassigned) [Example E76, 2-(6-(6-(cis-4-hydroxy-4-methylcyclohexyl)-5-methyl-1H-indazol-1-yl)-2-methylpyrimidin-4-yl)-2-azabicyclo[2.2.1]heptane-5-carboxylic Acid, TFA Salt]", "IC50": "≤ 0.01 µM"}
{"smiles": "Cc1nc(N2CC3CC2CO3)cc(-n2ncc3cc(C)c(C4CCN(C5COC5)CC4O)cc32)n1", "note": "(single isomer, unassigned) [Example E141]", "IC50": "≤ 1 µM"}
{"smiles": "Cc1nc(N2C[C@@H]3C[C@H]2CO3)cc(-n2ncc3cc(C)c(C4CCN(CCO)CC4)cc32)n1", "note": "[Example E52, 2-(4-(1-(6-((1S,4S)-2-oxa-5-azabicyclo[2.2.1]heptan-5-yl)-2-methylpyrimidin-4-yl)-5-methyl-1H-indazol-6-yl)piperidin-1-yl)ethanol]", "IC50": "≤ 1 µM"}
{"smiles": "Cc1nc(N2CC3CC2CO3)cc(-n2ncc3cc(C)c([C@H]4CC[C@@](C)(O)CC4)cc32)n1", "note": "(single isomer, unassigned) [Example E9]", "IC50": "≤ 1 µM"}
{"smiles": "Cc1nc(N2C[C@H]3C[C@@H]2CO3)cc(-n2ncc3cc(C)c(C4CCN(C5COC5)CC4)cc32)n1", "note": "[Example E39, (1R,4R)-5-(2-methyl-6-(5-methyl-6-(1-(oxetan-3-yl)piperidin-4-yl)-1H-indazol-1-yl)pyrimidin-4-yl)-2-oxa-5-azabicyclo[2.2.1]heptane]", "IC50": "≤ 1 µM"}
{"smiles": "Cc1nc(N2C[C@@H]3C[C@H]2CO3)cc(-n2ncc3cc(C)c(C4CCN(C5COC5)CC4)cc32)n1", "note": "[Example E40, (1S,4S)-5-(2-methyl-6-(5-methyl-6-(1-(oxetan-3-yl)piperidin-4-yl)-1H-indazol-1-yl)pyrimidin-4-yl)-2-oxa-5-azabicyclo[2.2.1]heptane]", "IC50": "≤ 1 µM"}
{"smiles": "COc1nc(N2C[C@@H]3C[C@H]2CO3)cc(-n2ncc3cc(C)c(C4CCNCC4)cc32)n1", "note": "[Example E59, (1S,4S)-5-(2-methoxy-6-(5-methyl-6-(piperidin-4-yl)-1H-indazol-1-yl)pyrimidin-4-yl)-2-oxa-5-azabicyclo[2.2.1]heptane]", "IC50": "≤ 1 µM"}
{"smiles": "COc1nc(N2CC3CCC(C2)O3)cc(-n2ncc3cc(C)c(C4CCNCC4)cc32)n1", "note": "[Example E62, 3-(2-methoxy-6-(5-methyl-6-(piperidin-4-yl)-1H-indazol-1-yl)pyrimidin-4-yl)-8-oxa-3-azabicyclo[3.2.1]octane 2,2,2-trifluoroacetate]", "IC50": "≤ 1 µM"}
{"smiles": "Cc1nc(N2C[C@@H]3C[C@H]2CO3)cc(-n2ncc3cc(C)c(C4CCN(C5CCOC5)CC4F)cc32)n1", "note": "(single isomer, unassigned) [Example E151]", "IC50": "≤ 1 µM"}
{"smiles": "Cc1nc(N2C[C@@H]3C[C@H]2CO3)cc(-n2ncc3cc(C)c([C@H]4CC[C@@](C)(O)CC4)cc32)n1", "note": "[Example E7, Cis-4-(1-(6-((1S,4S)-2-oxa-5-azabicyclo[2.2.1]heptan-5-yl)-2-methylpyrimidin-4-yl)-5-methyl-1H-indazol-6-yl)-1-methylcyclohexanol]", "IC50": "≤ 1 µM"}
{"smiles": "COc1nc(N2C[C@@H]3C[C@H]2CO3)cc(-n2ncc3cc(C)c(C4CCN(C5COC5)CC4)cc32)n1", "note": "[Example E2, (1S,4S)-5-(2-methoxy-6-(5-methyl-6-(1-(oxetan-3-yl)piperidin-4-yl)-1H-indazol-1-yl)pyrimidin-4-yl)-2-oxa-5-azabicyclo[2.2.1]heptane]", "IC50": "≤ 1 µM"}
{"smiles": "COc1nc(N2CC3CC2CO3)cc(-n2ncc3cc(C)c([C@H]4CC[C@@](C)(O)CC4)cc32)n1", "note": "(single isomer, unassigned) [Example E11]", "IC50": "≤ 0.01 µM"}
